Experimental data: US20230277612A1, “SAPONIN DERIVATIVES FOR USE IN MEDICINE” (priority 2020, published 2023)
Where two headings read alike, the source gives them in different places.

Columns and labels:
[1] = system: EGFR expressing cells (HeLa and A431); details: summary in description
[2] = Critical micellar concentration (CMC) by ANS fluorescence; format: physicochemical
Protocol: The critical micellar concentration (CMC) of saponins derived from Saponaria officinalis (SO) (Table A7) and derived from Quillaja saponaria (QS) (Table A8, and Table A9) was determined by the method of DeVendittis et al. (A fluorimetric method for the estimation of the critical micelle concentration of surfactants, Analytical Biochemistry, Volume 115, Issue 2, August 1981, Pages 278-286) as follows:
(§1) The emission spectrum of 8-Anilinonaphthalene-1-sulfonic acid (ANS) in either purified water (MQ) or PBS (Dulbecco's PBS+/+) was determined at dry weight concentrations of saponins ranging from 1 to 1400 pM to cover the range below and above the CMC. Above the CMC, the fluorescence yield of ANS increases and the wavelength of maximum emission decreases due to portioning of the fluorescent dye into micelles. Fluorescence yields were recorded on a Fluoroskan Ascent FL (Thermo Scientific) at an excitation wavelength of 355 nm, and an emission wavelength of 460 nm. 6 μg at a concentration of 75.86 pM of ANS were used per sample and measurement.
The critical micellar concentration (CMC) of saponins was determined by the method of DeVendittis et al. (A fluorimetric method for the estimation of the critical micelle concentration of surfactants, Analytical Biochemistry, Volume 115, Issue 2, August 1981, Pages 278-286) as follows:
as §1, with “μM” for “pM”

[3] = system: human red blood cells; experiment: cells; format: cell-based
Protocol: Red blood cells (RBCs) were isolated from a buffy coat using a Ficoll gradient. The obtained RBC pellet (˜4-5 ml) was washed 2× with 50 ml DPBS (without Ca^2+/Mg^2+, PAN-Biotech GmbH). Cells were pelleted by centrifugation for 10 min, 800×g at RT. RBC were counted and resuspended at 500.000.000 c/ml in DPBS (without Ca^2+/Mg^2+), based on total cell count.
(§2) Saponin dilutions were prepared in DPBS (with Ca^2+/Mg^2+, PAN-Biotech GmbH), at 1.11× final strength. For positive lysis control a 0.02% Triton-X100 solution was prepared in DPBS^+/+. Of all compound solutions 135 μl was dispensed/well in a 96 well V-bottom plate. To this 15 μl RBC suspension was added and mixed shortly (10 sec-600 rpm). The plate was incubated 30 min at RT, with gentle agitation. Afterwards the plate was spun for 10 min at 800×g to pellet the RBC and 100-120 μl supernatant was transferred to a standard 96 wp (96 well-plate).
as §2, with “DPBS+/+.” for “DPBS^+/+.”

[4] = system: HeLa cells; experiment: cells; format: cell-based; details: Table A5, saponin alone, read-out: IC50 nM (Toxicity)
Protocol: (§3) (FIGS. 66a and 66B). Next toxicity was determined, for this the modified saponins were titrated on HeLa and A431 cells. […] Next toxicity was determined, for this the modified saponins were titrated on HeLa and A431 cells.

[5] = system: A431 cells; experiment: cells; format: cell-based; details: Table A6, saponin alone, read-out: IC50 nM (Toxicity)
Protocol: as §3

[6] = system: EGFR expressing cells (A431); format: cell-based; details: Table A6; A431 cells; saponin titrated + 5 pM EGFdianthin; read-out: IC50 nM (Activity)
[7] = system: EGFR expressing cells (HeLa); format: cell-based; details: Table A5; HeLa cells; saponin titrated + 5 pM EGFdianthin; read-out: IC50 nM (Activity)

Structure (SMILES): CC(=O)OC1C(C)OC(OC2C(C)OC(OC(=O)[C@]34CCC(C)(C)CC3C3=CCC5[C@@]6(C)CC[C@H](OC7OC(C(=O)NCCN8C(=O)C=CC8=O)C(O)C(OC8OCC(O)C(O)C8O)C7OC7OC(CO)C(O)C(O)C7O)[C@@](C)(CO)C6CC[C@@]5(C)[C@]3(C)C[C@H]4O)C(OC3OC(C)C(OC4OCC(O)C(OC5OC(CO)C(O)C(O)C5O)C4O)C(O)C3O)C2O)C(O)C1OC1OCC(O)C(O)C1O (stereo partly shown) [Molecule 20]
- Endosomal escape enhancing activity (enhancement of cytotoxicity of effector conjugate) [1]: have the capacity to enhance the cytotoxic effect

Structure (SMILES): CC(=O)OC1C(C)OC(OC2C(C)OC(OC(=O)C34CCC(C)(C)CC3C3=CCC5C6(C)CCC(OC7OC(C(=O)NC(C)(CO)CO)C(O)C(OC8OCC(O)C(O)C8O)C7OC7OC(CO)C(O)C(O)C7O)C(C)(C=NNC(=O)CCCCCN7C(=O)C=CC7=O)C6CCC5(C)C3(C)CC4O)C(OC3OC(C)C(OC4OCC(O)C(OC5OC(CO)C(O)C(O)C5O)C4O)C(O)C3O)C2O)C(O)C1OC1OCC(O)C(O)C1O (stereo not shown) [Molecule 14]
- Endosomal escape enhancing activity (enhancement of cytotoxicity of effector conjugate) [1]: have the capacity to enhance the cytotoxic effect

Structure (SMILES): CC(=O)OC1C(C)OC(OC2C(C)OC(OC(=O)[C@]34CCC(C)(C)CC3C3=CCC5[C@@]6(C)CC[C@H](OC7OC(C(=O)NC(C)(CO)CO)C(O)C(OC8OCC(O)C(O)C8O)C7OC7OC(CO)C(O)C(O)C7O)[C@@](C)(CO)C6CC[C@@]5(C)[C@]3(C)C[C@H]4O)C(OC3OC(C)C(OC4OCC(O)C(OC5OC(CO)C(O)C(O)C5O)C4O)C(O)C3O)C2O)C(O)C1OC1OCC(O)C(O)C1O (stereo partly shown) [Molecule 9]
- Endosomal escape enhancing activity (enhancement of cytotoxicity of effector conjugate) [1]: have the capacity to enhance the cytotoxic effect

Structure (SMILES): CC(=O)OC1C(C)OC(OC2C(C)OC(OC(=O)[C@]34CCC(C)(C)CC3C3=CCC5[C@@]6(C)CC[C@H](OC7OC(C(=O)NCCN8C(=O)C=CC8=O)C(O)C(OC8OCC(O)C(O)C8O)C7OC7OC(CO)C(O)C(O)C7O)[C@@](C)(C=O)C6CC[C@@]5(C)[C@]3(C)C[C@H]4O)C(OC3OC(C)C(OC4OCC(O)C(OC5OC(CO)C(O)C(O)C5O)C4O)C(O)C3O)C2O)C(O)C1OC1OCC(O)C(O)C1O (stereo partly shown) [Molecule 18]
- Endosomal escape enhancing activity (enhancement of cytotoxicity of effector conjugate) [1]: display activity

Structure (SMILES): CC1OC(OC2C(C)OC(OC(=O)[C@]34CCC(C)(C)CC3C3=CCC5[C@@]6(C)CC[C@H](OC7OC(C(=O)O)C(O)C(OC8OCC(O)C(O)C8O)C7OC7OC(CO)C(O)C(O)C7O)[C@@](C)(CO)C6CC[C@@]5(C)[C@]3(C)C[C@H]4O)C(OC3OC(C)C(OC4OCC(O)C(OC5OC(CO)C(O)C(O)C5O)C4O)C(O)C3O)C2O)C(O)C(OC2OCC(O)C(O)C2O)C1O (stereo partly shown) [Molecule 10]
- CMC compared to corresponding underivatised saponin [2]: increased CMC
- Endosomal escape enhancing activity (enhancement of cytotoxicity of effector conjugate) [1]: have the capacity to enhance the cytotoxic effect

Structure (SMILES): CC1OC(OC2C(C)OC(OC(=O)[C@]34CCC(C)(C)CC3C3=CCC5[C@@]6(C)CC[C@H](OC7OC(C(=O)NCCN8C(=O)C=CC8=O)C(O)C(OC8OCC(O)C(O)C8O)C7OC7OC(CO)C(O)C(O)C7O)[C@@](C)(C=O)C6CC[C@@]5(C)[C@]3(C)C[C@H]4O)C(OC3OC(C)C(OC4OCC(O)C(OC5OC(CO)C(O)C(O)C5O)C4O)C(O)C3O)C2O)C(O)C(OC2OCC(O)C(O)C2O)C1O (stereo partly shown) [Molecule 19]
- Endosomal escape enhancing activity (enhancement of cytotoxicity of effector conjugate) [1]: display activity

Structure (SMILES): CC(=O)OC1C(C)OC(OC2C(C)OC(OC(=O)[C@]34CCC(C)(C)CC3C3=CCC5[C@@]6(C)CC[C@H](OC7OC(C(=O)O)C(O)C(OC8OCC(O)C(O)C8O)C7OC7OC(CO)C(O)C(O)C7O)[C@@](C)(CO)C6CC[C@@]5(C)[C@]3(C)C[C@H]4O)C(OC3OC(C)C(OC4OCC(O)C(OC5OC(CO)C(O)C(O)C5O)C4O)C(O)C3O)C2O)C(O)C1OC1OCC(O)C(O)C1O (stereo partly shown) [Molecule 6]
- CMC compared to corresponding underivatised saponin [2]: increased CMC
- Endosomal escape enhancing activity (enhancement of cytotoxicity of effector conjugate) [1]: have the capacity to enhance the cytotoxic effect

Structure (SMILES): CC(=O)OC1C(C)OC(OC2C(C)OC(OC(=O)[C@]34CCC(C)(C)CC3C3=CCC5[C@@]6(C)CC[C@H](OC7OC(C(=O)NC(C)(CO)CO)C(O)C(OC8OCC(O)C(O)C8O)C7OC7OC(CO)C(O)C(O)C7O)[C@@](C)(C=O)C6CC[C@@]5(C)[C@]3(C)C[C@H]4O)C(OC3OC(C)C(OC4OCC(O)C(OC5OC(CO)C(O)C(O)C5O)C4O)C(O)C3O)C2O)C(O)C1OC1OCC(O)C(O)C1O (stereo partly shown) [Molecule 3A]
- Endosomal escape enhancing activity (enhancement of cytotoxicity of effector conjugate) [1]: display activity

Structure (SMILES): CC1OC(OC2C(C)OC(OC(=O)[C@]34CCC(C)(C)CC3C3=CCC5[C@@]6(C)CC[C@H](OC7OC(C(=O)NC(C)(CO)CO)C(O)C(OC8OCC(O)C(O)C8O)C7OC7OC(CO)C(O)C(O)C7O)[C@@](C)(C=O)C6CC[C@@]5(C)[C@]3(C)C[C@H]4O)C(OC3OC(C)C(OC4OCC(O)C(OC5OC(CO)C(O)C(O)C5O)C4O)C(O)C3O)C2O)C(O)C(OC2OCC(O)C(O)C2O)C1O (stereo partly shown) [Molecule 11]
- Endosomal escape enhancing activity (enhancement of cytotoxicity of effector conjugate) [1]: display activity

Structure (SMILES): CC1OC(OC2C(C)OC(OC(=O)C34CCC(C)(C)CC3C3=CCC5C6(C)CCC(OC7OC(C(=O)O)C(O)C(OC8OCC(O)C(O)C8O)C7OC7OC(CO)C(O)C(O)C7O)C(C)(C=NNC(=O)CCCCCN7C(=O)C=CC7=O)C6CCC5(C)C3(C)CC4O)C(OC3OC(C)C(OC4OCC(O)C(OC5OC(CO)C(O)C(O)C5O)C4O)C(O)C3O)C2O)C(O)C(OC2OCC(O)C(O)C2O)C1O (stereo not shown) [Molecule 15]
- CMC compared to corresponding underivatised saponin [2]: increased CMC
- Endosomal escape enhancing activity (enhancement of cytotoxicity of effector conjugate) [1]: have the capacity to enhance the cytotoxic effect

Structure (SMILES): CC1OC(OC2C(C)OC(OC(=O)[C@]34CCC(C)(C)CC3C3=CCC5[C@@]6(C)CC[C@H](OC7OC(C(=O)NCCN8C(=O)C=CC8=O)C(O)C(OC8OCC(O)C(O)C8O)C7OC7OC(CO)C(O)C(O)C7O)[C@@](C)(CO)C6CC[C@@]5(C)[C@]3(C)C[C@H]4O)C(OC3OC(C)C(OC4OCC(O)C(OC5OC(CO)C(O)C(O)C5O)C4O)C(O)C3O)C2O)C(O)C(OC2OCC(O)C(O)C2O)C1O (stereo partly shown) [SO1861-(Glu-AEM)-(Ald-OH)-(Ac—OH)]
- IC50 ([3]; Table A5, read-out: IC50 nM (hemolysis)): > 1e+06 nM
- IC50 ([3]; Table A6, read-out: IC50 nM (hemolysis)): > 1e+06 nM
- IC50 [4]: > 100000 nM
- IC50 [5]: > 100000 nM
- CMC ([2]; Table A7, determined in PBS): >150 µM
- IC50 [6]: > 20000 nM
- IC50 [7]: > 20000 nM

Structure (SMILES): CC1OC(OC2C(C)OC(OC(=O)[C@]34CCC(C)(C)CC3C3=CCC5[C@@]6(C)CC[C@H](OC7OC(C(=O)O)C(O)C(OC8OCC(O)C(O)C8O)C7OC7OC(CO)C(O)C(O)C7O)[C@@](C)(C=O)C6CC[C@@]5(C)[C@]3(C)C[C@H]4O)C(OC3OC(C)C(OC4OCC(O)C(OC5OC(CO)C(O)C(O)C5O)C4O)C(O)C3O)C2O)C(O)C(OC2OCC(O)C(O)C2O)C1O (stereo partly shown) [Molecule 8]
- CMC compared to corresponding underivatised saponin [2]: increased CMC
- Endosomal escape enhancing activity (enhancement of cytotoxicity of effector conjugate) [1]: display activity
